Earlier results as cited in patent publication US6495121B2, “Chewing gum containing dipetide sweetener with lengthened and improved flavor” (Holland Sweetner Company V.O.F., priority 1996, dated 2002).
Where a SMILES comes first, the peptide text is derived from it.

Conditions: relative to sucrose

Structure (SMILES): C[C@@H](NC(=O)[C@@H](N)CC(=O)O)C(=O)NC1C(C)(C)SC1(C)C.O [Alitame, L-α-aspartyl-n-(2,2,4,4-tetramethyl-3-thietanyl)-D-alanineamidehydrate]
- sweetening power: approximately 2000 × that of sucrose

Structure (SMILES): COC(=O)[C@H](Cc1ccccc1)NC(=O)[C@@H](N)CC(=O)O [Aspartame, α-L-aspartyl-L-phenylalaninemethylester] (H-Asp-Phe-OMe)
- sweetening power: approximately 200 × that of sucrose
